From patent US20190225643A1, “NOVEL NUCLEOSIDE ANALOGS AND USE THEREOF IN THERAPEUTIC TREATMENT” (CORNELL UNIVERSITY, priority 2016, published 2019)

Assays:
[1] = tested on: colon (RKO, HCT116, DID1) and pancreatic (PA-TU-8988T) cancer cell lines; test: Viability of adenocarcinoma cell lines; format: cell-based
Method: (§1) Cell viability assays were performed by plating log-phase cells in RPMI complete media with 20% FBS at 1*10^5 cells/mL, with concentrations of 6-ETI or phospho-6-ETI ranging from 0.1 nM to 100 μM. ATP content at 24, 48 and 72 hours post-treatment was measured by the CellTiter-Glo kit (Promega, Madison, Wis.), or by Trypan blue assay as indicated. The LC50 for 6-ETI in each cell line was determined using online EC50 software at changbioscience.com or using GraphPad Prism to determine the LC50 for 6-ETI, phospho-6-ETI and nucleoside analogs in MM cell lines and primary MM patient samples.

[2] = tested on: IBL1 cells; test: Trypan-blue exclusion viability, non-PEL cell line; format: cell-based; conditions: Homo sapiens; selected non-PEL cell line (IBL1), 48 hours; read-out: LC50 by Trypan-blue exclusion
Method: as §1

[3] = tested on: 6-ETI-resistant BC3 clones and xenograft cell lines 2-3 low and 3-5 low; test: Viability assay in 6-ETI-resistant BC3-derived cell lines; format: cell-based
Method: To generate 6-ETI resistant clones, BC3 cells were plated in RPMI-1640 with 50 μg/mL Gentamicin and 20% FBS under 6-ETI selection in multiple 96-well plates at 1*10^5 cells/mL. Selection was begun at 15 nM, 30 nM, or 60 nM 6-ETI. Cells were split every three days, with the dose of 6-ETI doubled at least 1×/week. Selection continued until a few clonal populations remained, after which the clones were expanded into fresh plates under selection with 10 μM 6-ETI. Clones retrieved were designated NSCE-1, NSCE-2, NSCE-3, NSCE-4, NSCE-5, NSCE-6, NSCE-7, NSCE-8, in chronological order of selection from the original plates.
The ascites from these mice were harvested ex vivo, and following Ficoll extraction, placed in culture in RPMI-1640 with 10% FBS.

[4] = tested on: normal plasma cells (CD19-, CD138+) from human tonsils; test: Toxicity on normal primary tonsillar lymphocytes; format: cell-based; conditions: 1 μM and 10 μM, 24 hours
Method: Primary human tonsil specimens were obtained from the Weill Cornell/New York Presbyterian Institutional Biobank. Lymphocytes were isolated from human tonsil tissue by dissection and maceration in RPMI media. Lymphocyte-containing media was passed through a 70 μm filter and pelleted at 400 g for 7 minutes. RBC were lysed for 5 minutes in RBC lysing solution (0.15M ammonium chloride, 10 mM potassium bicarbonate, […]). After dilution to 50 ml with RPMI, lymphocytes were filtered through a […] filter, counted and pelleted a second time. Total B cells were isolated using magnetic cell sorting according to manufacturer instructions (Miltenyi Cat#130-091-151). Cells were plated at 2 million cells/ml in RPMI with 20% FBS and 100 μg/ml Primocin (Invivogen) and laid over gamma-irradiated CDW32 feeder cells. Cells were then treated with DMSO, 1 μM or 10 μM 6-ETI for 24 hrs. […] Data was acquired on a BD LSR2 Flow Cytometer and analyzed using FlowJo software. The frequency of plasma cells was assessed based on singlet-gated cells expressing CD138.

[5] = tested on: KSHV latent proteins LANA, vFLIP and vCyclin; test: Western blot of KSHV latent proteins; format: cell-based
Method: For all intracellular signaling studies, cell lines were plated at 2*10^5 cells/mL or at indicated densities in RPMI-1640 with 20% FBS, and treated with the stated concentrations of 6-ETI, from 6 to 48 hours. Immunoblotting was performed using the following antibodies: PARP (BD Pharmingen, 556494), LC3B (Cell Signaling, 2775S), phospho-l-listone H2AX.X S139 (Cell Signaling, 2577S), GAPDH (Gene Tex, GTX100118), ADK (Santa Cruz, sc-365470) vFLIP 6/14 antibody was a gift from Mary Collins at University College of London, vCyclin (Abcam, ab12208), LANA (Advanced Biotechnologies, 13-210-100), β-Actin (Sigma A5316), p65 (Cell Signaling C22B4, p50 (Cell Signaling 3035), October-1 (Cell Signaling 4428), p-IκBα (Santa Cruz 3-9 sc-8404), IκBα (Santa Cruz C-21 sc-371), pIKKα/β (ser 176)(Santa Cruz sc-21661), IKKα (Santa Cruz H-744 sc-7218).

[6] = tested on: IBL1, LY7 and BCKN1 cells; test: Viability assay at higher plating density; format: cell-based; conditions: 5*10^5 cells/mL versus original assay conditions
Method: as §1, with “Cell viability assays were performed by plating log-phase cells in RPMI complete media with 20% FBS at 1*10^5 cells/mL, with concentrations of 6-ETI or phospho-6-ETI ranging from 0.1 nM to 100 μM.” left out

[7] = tested on: CAG-luc multiple myeloma xenograft; test: Disseminated multiple myeloma xenograft model; format: in vivo, mouse
Method: For the disseminated multiple myeloma xenograft model, CAG cells were kindly provided by Dr. Malcolm Moore lab at MSKCC. 1×10^7 of CAG cells stably expressing the HSV-TK-eGFP-luciferase fusion protein were injected intravenously into NOD/SCID (NOD/LTSZPrko/J, the Jackson Laboratory Stock# 001303). Eight days after tumor induction, mice were randomized into control and treated cohorts and treated intraperitoneally with either PBS 0.05% tween 80 (vehicle) or 200 mg/kg of 6-ETI daily for 9 days. Tumor mass or bioluminescence (photons/s/cm^2/steradian) was evaluated by imaging the mice using IVIS Imaging system. Statistical analysis was done using a two-tailed, unpaired Student's t-test using GraphPad prism.

CCSc1ncnc2c1ncn2[C@@H]1O[C@H](CO)C(O)[C@@H]1O (stereo partly shown) [Compound 6-ETI, 6-ethylthioinosine]
LC50 [1]: nanomolar range
CC50 [2]: 134 µM
CC50 ([3]; Homo sapiens, xenograft cell lines 2-3 low and 3-5 low after selection with 10 μM 6-ETI, read-out: LC50 (the source's name)): > 100 µM
resistance of selected clones ([3]; clones NSCE-1, -2, -3, -6, -7, -8): fully resistant
total number or proportion of normal plasma cells [4]: did not find a decrease in the total number or proportion of plasma cells
latent viral protein expression [5]: no reduction was seen in latent viral protein expression
LC50 change at higher cell density [6]: decreased strikingly
tumor burden (bioluminescent signal) ([7]; 200 mg/kg/day i.p. for 9 days): significant reduction in tumor burden
weight loss ([7]; 200 mg/kg/day i.p. for 9 days): without any weight loss
overall survival ([7]; 200 mg/kg/day, P<0.005): significantly prolonged
